The structures appear in SMILES notation.

This note sets out measurements from patent US11000033B2, “Ketone or oxime compound, and herbicide” (NISSAN CHEMICAL CORPORATION, priority 2014, dated 2021).

Holding throughout (type): in vivo
The test system of one data set is transplanted rice plant. Kind of data set: Test Example 1: effect on crop, application before weed generation in submerged conditions (symbol a). Conditions: application herbicide amount 320 g/ha. The method, boiled down: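 Rice at 2.5 leaf stage transplanted into submerged soil (4 cm depth) sown with three weed species; herbicide applied before weed emergence.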

The subject of data set [1] is Echinochloa oryzacola Vasing. Kind of data set: Test Example 2: herbicidal activity, application during weed generation in submerged conditions (symbol A). As to conditions: Table 23; application herbicide amount 320 g/ha; grade 0-5 by criteria of Test Example 1. Summed up:
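Each pot contained alluvial soil under 4 cm of water with seeds of all three weeds sown together. Following growth at 25° C. to 30° C. to the one- to two-leaf stage, the floodwater received diluted emulsion at a predetermined amount; visual assessment followed at 3 weeks.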

Another data set concerns Leptochloa chinensis. Kind of data set: Test Example 3: herbicidal effect by foliage application, Wagner pot (symbol D). As to conditions: application herbicide amount 320 g/ha. The method, boiled down:
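Seeds sown in alluvial soil kept under 0.1–0.5 cm water, greenhouse 25–30 °C; 14 d growth. Leaves treated by small sprayer with water-diluted emulsion at a predetermined rate. Effect graded by set scale, 3 weeks.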

A further data set relates to Digitaria ciliaris. The data set can be described thus: Test Example 4: herbicidal effect by soil treatment (symbol F). As to conditions: application herbicide amount 320 g/ha. The method, boiled down: (§1)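 Seeds were sown in sterilized diluvial soil, covered with about 1.5 cm of soil, and the soil surface was sprayed with a water-diluted emulsion of the compound at a predetermined rate. Plants grew in a greenhouse at 25° C. to 30° C.; effects were scored visually 3 weeks after application.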

The subject of data set [2] is Echinochloa crus-galli var. crus-galli. Kind of data set: Test Example 4: herbicidal effect by soil treatment (symbol H). Conditions: application herbicide amount 320 g/ha. The method, boiled down: as §1
For data set [3], the system named is Avena fatua. The data set can be described thus: Test Example 4: herbicidal effect by soil treatment (symbol I). Conditions: application herbicide amount 320 g/ha. Summed up: as §1
The subject of another data set is Lolium multiflorum Lam. The data set can be described thus: Test Example 4: herbicidal effect by soil treatment (symbol K). Conditions: application herbicide amount 320 g/ha. The method, boiled down: as §1
For data set [4], the system named is Veronica persica. The data set can be described thus: Test Example 4: herbicidal effect by soil treatment (symbol R). Conditions: application herbicide amount 320 g/ha. The method, boiled down:
as §1

A further data set deals with Setaria viridis. Kind of data set: Test Example 5: herbicidal effect by foliage application, plastic box (symbol G). Conditions: 320 g/ha, 3 weeks after application. Summed up: (§2)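 Emulsion formulation, diluted with water to the intended rate, was applied uniformly to leaves by small sprayer. Recipients were 14-day greenhouse-grown seedlings (25° C. to 30° C.). Assessment followed at 3 weeks.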

Data set [5] has as its system Avena fatua. The data set can be described thus: Test Example 5: herbicidal effect by foliage application, plastic box (symbol I). Conditions: 320 g/ha, 3 weeks after application. Summed up: as §2
The test system of another data set is Chenopodium album. The data set can be described thus: Test Example 5: herbicidal effect by foliage application, plastic box (symbol O). As to conditions: 320 g/ha, 3 weeks after application. Summed up: as §2
Data set [6] concerns Veronica persica. The data set can be described thus: Test Example 5: herbicidal effect by foliage application, plastic box (symbol R). Conditions: 320 g/ha, 3 weeks after application. Summed up:
as §2

For a further data set, the system named is corn. Kind of data set: Test Example 5: effect on crop by foliage application, plastic box (symbol c). As to conditions: 320 g/ha, 3 weeks after application. Summed up: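 A greenhouse held between 25° C. and 30° C. was used to grow plants sown spot-wise, beneath ~1.5 cm of soil, in boxes of sterilized diluvial soil.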

For the molecule `CON=C(C)CC1CC(O)=C(c2c(C)cc(-c3ccc(OC(F)(F)F)cc3)cc2C)C1=O` (mixture of isomers) [6-056], the “Effect grade on crop, a: transplanted rice plant” value (“Effect grade on crop” for short) in the data set on transplanted rice plant is reported as 0 (Herbicidal ratio of 5% or lower (almost no effect)). The “Herbicidal effect grade, A: Echinochloa oryzacola Vasing.” value in data set [1] is 1 (Herbicidal ratio of 5% or higher and lower than 20%). Moreover, the “herbicidal effect on D (Leptochloa chinensis), grade 0-5” value (shortened to “herbicidal effect on D”) in the data set on Leptochloa chinensis is reported as 5 (Herbicidal ratio of 90% or more (almost completely withered)). Moreover, in the data set with Digitaria ciliaris, the “F: Digitaria ciliaris, herbicidal effect grade” value was 0 (Herbicidal ratio of 5% or lower (almost no effect)). The “H: Echinochloa crus-galli var. crus-galli, herbicidal effect grade” value in data set [2] is listed as 0 (Herbicidal ratio of 5% or lower (almost no effect)). For the same molecule, the “I: Avena fatua, herbicidal effect grade” value in the data set on Avena fatua [3] is recorded as 0 (Herbicidal ratio of 5% or lower (almost no effect)). In addition, the “K: Lolium multiflorum Lam., herbicidal effect grade” value in the data set on Lolium multiflorum Lam. is reported as 0 (Herbicidal ratio of 5% or lower (almost no effect)). For the same molecule, in the data set on Veronica persica [4], the “R: Veronica persica, herbicidal effect grade” value is given as 0 (Herbicidal ratio of 5% or lower (almost no effect)). The “G: Setaria viridis, herbicidal effect (criteria of Test Example 1)” value in the data set with Setaria viridis is recorded as 5 (Herbicidal ratio of 90% or more (almost completely withered)). In the data set with Avena fatua [5], the “I: Avena fatua, herbicidal effect (criteria of Test Example 1)” value was 3 (Herbicidal ratio of 40% or higher and lower than 70%). The “O: Chenopodium album, herbicidal effect (criteria of Test Example 1)” value in the data set on Chenopodium album was 3 (Herbicidal ratio of 40% or higher and lower than 70%). For the same molecule, the “R: Veronica persica, herbicidal effect (criteria of Test Example 1)” value in the data set with Veronica persica [6] is on record as 0 (Herbicidal ratio of 5% or lower (almost no effect)). Moreover, the “c: corn, effect on crop (criteria of Test Example 1)” value in the data set on corn is 1 (Herbicidal ratio of 5% or higher and lower than 20%).
For the molecule `CC(=O)CC1CC(O)=C(c2c(C)cc(C)cc2Br)C1=O` (centres unmarked) [7-011], the “Effect grade on crop” value in the data set with transplanted rice plant was 1 (Herbicidal ratio of 5% or higher and lower than 20%). Moreover, the “Herbicidal effect grade, A: Echinochloa oryzacola Vasing.” value in data set [1] was 3 (Herbicidal ratio of 40% or higher and lower than 70%). The “herbicidal effect on D” value in the data set with Leptochloa chinensis was 4 (Herbicidal ratio of 70% or higher and lower than 90%). Moreover, in the data set on Digitaria ciliaris, the “Herbicidal effect grade, F: Digitaria ciliaris” value (from here on “Herbicidal effect grade, F”) is 5 (Herbicidal ratio of 90% or more (almost completely withered)). In data set [2], the “Herbicidal effect grade, H: Echinochloa crus-galli var. crus-galli” value (shortened to “Herbicidal effect grade, H”) was 4 (Herbicidal ratio of 70% or higher and lower than 90%). Further, the “Herbicidal effect grade, I: Avena fatua” value in the data set on Avena fatua [3] was 0 (Herbicidal ratio of 5% or lower (almost no effect)). Further, the “Herbicidal effect grade, K: Lolium multiflorum Lam.” value (“Herbicidal effect grade, K” below) in the data set with Lolium multiflorum Lam. is 4 (Herbicidal ratio of 70% or higher and lower than 90%). Moreover, in the data set on Veronica persica [4], the “Herbicidal effect grade, R: Veronica persica” value (“Herbicidal effect grade, R” below) is 0 (Herbicidal ratio of 5% or lower (almost no effect)). The “G: Setaria viridis, herbicidal effect (criteria of Test Example 1)” value in the data set on Setaria viridis was 3 (Herbicidal ratio of 40% or higher and lower than 70%). The “I: Avena fatua, herbicidal effect (criteria of Test Example 1)” value in the data set on Avena fatua [5] is 3 (Herbicidal ratio of 40% or higher and lower than 70%). For the same molecule, in the data set with Chenopodium album, the “O: Chenopodium album, herbicidal effect (criteria of Test Example 1)” value is 3 (Herbicidal ratio of 40% or higher and lower than 70%). In addition, the “R: Veronica persica, herbicidal effect (criteria of Test Example 1)” value in the data set with Veronica persica [6] is 1 (Herbicidal ratio of 5% or higher and lower than 20%). Besides, the “c: corn, effect on crop (criteria of Test Example 1)” value in the data set with corn was 2 (Herbicidal ratio of 20% or higher and lower than 40%).
For `CON=C(C)CC1CC(O)=C(c2c(C)cc(C3CC3)cc2C)C1=O` (centres unmarked) [6-050], the “Effect grade on crop” value in the data set with transplanted rice plant is 4 (Herbicidal ratio of 70% or higher and lower than 90%). Besides, the “Herbicidal effect grade, A: Echinochloa oryzacola Vasing.” value in data set [1] is 3 (Herbicidal ratio of 40% or higher and lower than 70%). Besides, in the data set on Leptochloa chinensis, the “herbicidal effect on D” value is reported as 5 (Herbicidal ratio of 90% or more (almost completely withered)). Also, the “F: Digitaria ciliaris, herbicidal effect grade” value in the data set on Digitaria ciliaris is recorded as 5 (Herbicidal ratio of 90% or more (almost completely withered)). Moreover, the “H: Echinochloa crus-galli var. crus-galli, herbicidal effect grade” value in [2] was 4 (Herbicidal ratio of 70% or higher and lower than 90%). In addition, the “I: Avena fatua, herbicidal effect grade” value with Avena fatua [3] was 2 (Herbicidal ratio of 20% or higher and lower than 40%); with Avena fatua [5], 2 (Herbicidal ratio of 20% or higher and lower than 40%). Moreover, the “K: Lolium multiflorum Lam., herbicidal effect grade” value in the data set on Lolium multiflorum Lam. is 5 (Herbicidal ratio of 90% or more (almost completely withered)). The “R: Veronica persica, herbicidal effect grade” value is 0 (Herbicidal ratio of 5% or lower (almost no effect)) in the data set with Veronica persica [4]; 2 (Herbicidal ratio of 20% or higher and lower than 40%) in the data set with Veronica persica [6]. Also, the “G: Setaria viridis, herbicidal effect grade” value with Setaria viridis is 2 (Herbicidal ratio of 20% or higher and lower than 40%). Besides, in the data set with Chenopodium album, the “O: Chenopodium album, herbicidal effect grade” value was 3 (Herbicidal ratio of 40% or higher and lower than 70%). Besides, the “c: corn, effect on crop grade” value in the data set with corn is 4 (Herbicidal ratio of 70% or higher and lower than 90%).
For `CC(=O)CC1CC(O)=C(c2c(C)cc(OCC(F)(F)F)cc2C)C1=O` (centres unmarked) [7-015], the “Effect grade on crop” value in the data set on transplanted rice plant was 5 (Herbicidal ratio of 90% or more (almost completely withered)). Further, the “Herbicidal effect grade, A: Echinochloa oryzacola Vasing.” value in data set [1] is 5 (Herbicidal ratio of 90% or more (almost completely withered)). The “herbicidal effect on D” value in the data set with Leptochloa chinensis is listed as 5 (Herbicidal ratio of 90% or more (almost completely withered)). Besides, the “Herbicidal effect grade, F” value in the data set on Digitaria ciliaris was 5 (Herbicidal ratio of 90% or more (almost completely withered)). Moreover, the “Herbicidal effect grade, H” value in data set [2] is recorded as 5 (Herbicidal ratio of 90% or more (almost completely withered)). In addition, the “Herbicidal effect grade, I: Avena fatua” value in the data set with Avena fatua [3] is 3 (Herbicidal ratio of 40% or higher and lower than 70%). Besides, in the data set on Lolium multiflorum Lam., the “Herbicidal effect grade, K” value is on record as 5 (Herbicidal ratio of 90% or more (almost completely withered)). The “Herbicidal effect grade, R” value in the data set on Veronica persica [4] is given as 0 (Herbicidal ratio of 5% or lower (almost no effect)). The “G: Setaria viridis, herbicidal effect (criteria of Test Example 1)” value with Setaria viridis is 5 (Herbicidal ratio of 90% or more (almost completely withered)). In the data set with Avena fatua [5], the “I: Avena fatua, herbicidal effect (criteria of Test Example 1)” value is 5 (Herbicidal ratio of 90% or more (almost completely withered)). The “O: Chenopodium album, herbicidal effect (criteria of Test Example 1)” value in the data set on Chenopodium album was 3 (Herbicidal ratio of 40% or higher and lower than 70%). For the same molecule, the “R: Veronica persica, herbicidal effect (criteria of Test Example 1)” value in the data set on Veronica persica [6] is 4 (Herbicidal ratio of 70% or higher and lower than 90%). The “c: corn, effect on crop (criteria of Test Example 1)” value with corn is 5 (Herbicidal ratio of 90% or more (almost completely withered)).
With `CON=C(C)CC1CC(OC(=O)N2CCOCC2)=C(c2c(C)cc(-c3ccc(F)c(Cl)c3)cc2C)C1=O` (centres unmarked) [6-093], the “Effect grade on crop” value with transplanted rice plant is 5 (Herbicidal ratio of 90% or more (almost completely withered)). Moreover, the “Herbicidal effect grade, A: Echinochloa oryzacola Vasing.” value in [1] was 5 (Herbicidal ratio of 90% or more (almost completely withered)). Also, the “herbicidal effect on D” value in the data set on Leptochloa chinensis is recorded as 5 (Herbicidal ratio of 90% or more (almost completely withered)). Further, the “Herbicidal effect grade, F” value in the data set on Digitaria ciliaris is listed as 5 (Herbicidal ratio of 90% or more (almost completely withered)). Also, in [2], the “Herbicidal effect grade, H” value is recorded as 5 (Herbicidal ratio of 90% or more (almost completely withered)). For the same molecule, in the data set with Avena fatua [3], the “Herbicidal effect grade, I: Avena fatua” value is on record as 0 (Herbicidal ratio of 5% or lower (almost no effect)). Moreover, the “Herbicidal effect grade, K” value with Lolium multiflorum Lam. is 1 (Herbicidal ratio of 5% or higher and lower than 20%). The “Herbicidal effect grade, R” value in the data set on Veronica persica [4] was 4 (Herbicidal ratio of 70% or higher and lower than 90%). Also, the “G: Setaria viridis, herbicidal effect (criteria of Test Example 1)” value with Setaria viridis is given as 5 (Herbicidal ratio of 90% or more (almost completely withered)). In the data set with Avena fatua [5], the “I: Avena fatua, herbicidal effect (criteria of Test Example 1)” value was 5 (Herbicidal ratio of 90% or more (almost completely withered)). Moreover, the “O: Chenopodium album, herbicidal effect (criteria of Test Example 1)” value in the data set with Chenopodium album is reported as 5 (Herbicidal ratio of 90% or more (almost completely withered)). Moreover, the “R: Veronica persica, herbicidal effect (criteria of Test Example 1)” value in the data set with Veronica persica [6] is recorded as 5 (Herbicidal ratio of 90% or more (almost completely withered)). For the same molecule, the “c: corn, effect on crop (criteria of Test Example 1)” value in the data set on corn is 5 (Herbicidal ratio of 90% or more (almost completely withered)).
